The values that follow come from US20070066651A1, “Pyrazoline derivatives useful for the treatment of cancer” (LABORATORIOS DEL DR. ESTEVE S.A., priority 2004, published 2007).

One assay addresses T1, human recombinant COX-2 (Homo sapiens, UniProt P35354).
T1 construct: purchased Oxford Biomedical Research Inc
T1 sequence (P35354 18-604): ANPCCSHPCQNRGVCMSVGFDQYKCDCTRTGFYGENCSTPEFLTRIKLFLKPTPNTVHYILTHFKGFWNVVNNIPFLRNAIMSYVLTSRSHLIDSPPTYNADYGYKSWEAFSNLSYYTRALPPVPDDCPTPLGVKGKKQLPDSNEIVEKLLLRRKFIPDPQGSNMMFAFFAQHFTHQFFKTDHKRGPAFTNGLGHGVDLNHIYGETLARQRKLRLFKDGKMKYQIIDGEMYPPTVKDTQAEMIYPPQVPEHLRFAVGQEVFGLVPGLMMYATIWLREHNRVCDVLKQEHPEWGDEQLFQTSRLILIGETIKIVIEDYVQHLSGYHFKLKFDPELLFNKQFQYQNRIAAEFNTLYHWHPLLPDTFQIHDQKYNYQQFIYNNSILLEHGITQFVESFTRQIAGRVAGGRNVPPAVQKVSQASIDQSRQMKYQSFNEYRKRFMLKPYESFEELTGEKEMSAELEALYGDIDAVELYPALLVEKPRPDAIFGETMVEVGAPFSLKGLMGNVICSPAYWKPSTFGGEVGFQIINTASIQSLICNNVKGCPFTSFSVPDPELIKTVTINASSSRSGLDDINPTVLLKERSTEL
Briefly: Cyclooxygenase enzyme assay (TLC method), COX-2. The settings on record: human recombinant COX-2, preincubation 90-120 min, [1-14C] arachidonic acid; read-out: IC50 COX-2, inhibition of cyclooxygenase activity. Format: biochemical. As to the method: The compounds of formula I are potent inhibitors of COX-2. […] The resulting radiolabeled prostanoid compounds, i.e., the products of COX-2 reaction with arachidonic acid, were quantified.
Cyclooxygenase activity of ovine COX-1 (Oxford Biomedical Research Inc.) and human recombinant COX-2 (Oxford Biomedical Research Inc.) was assayed by a thin layer chromatography (TLC) method as follows. All inhibitors were dissolved in dimethyl sulfoxide to a stock solution of 5 mM. Human recombinant COX-2 (3 units) or ovine COX-1 (15 units) was incubated with inhibitors at several concentrations in a solution containing 100 mM Tris-HCl, pH7.8, 500 μM phenol and hematin for 90 to 120 minutes at room temperature (24° C.). In controls, equal volumes of DMSO without drug were added to the incubation mixture. After incubation for 90-120 minutes, [1-^14C] arachidonic acid (50 μM, 51 mCi/mmol) (DuPont NEN) was added and incubated at 37° C. for 2 minutes. The reaction was terminated by extraction with 1 ml of ethyl acetate. The ethyl acetate layer was transferred into a fresh tube and evaporated to dryness in a Speedvac vacuum dryer. […] Radiolabeled prostanoid compounds (the products of COX enzymatic reaction with radiolabeled arachidonic acid substrate) were quantitated with a radioactivity scanner (Fuji, Phosphorimager). […]

The target in a further assay is T2, ovine COX-1 (Ovis aries, UniProt P05979).
T2 construct: purchased Oxford Biomedical Research Inc
T2 sequence (P05979 25-600): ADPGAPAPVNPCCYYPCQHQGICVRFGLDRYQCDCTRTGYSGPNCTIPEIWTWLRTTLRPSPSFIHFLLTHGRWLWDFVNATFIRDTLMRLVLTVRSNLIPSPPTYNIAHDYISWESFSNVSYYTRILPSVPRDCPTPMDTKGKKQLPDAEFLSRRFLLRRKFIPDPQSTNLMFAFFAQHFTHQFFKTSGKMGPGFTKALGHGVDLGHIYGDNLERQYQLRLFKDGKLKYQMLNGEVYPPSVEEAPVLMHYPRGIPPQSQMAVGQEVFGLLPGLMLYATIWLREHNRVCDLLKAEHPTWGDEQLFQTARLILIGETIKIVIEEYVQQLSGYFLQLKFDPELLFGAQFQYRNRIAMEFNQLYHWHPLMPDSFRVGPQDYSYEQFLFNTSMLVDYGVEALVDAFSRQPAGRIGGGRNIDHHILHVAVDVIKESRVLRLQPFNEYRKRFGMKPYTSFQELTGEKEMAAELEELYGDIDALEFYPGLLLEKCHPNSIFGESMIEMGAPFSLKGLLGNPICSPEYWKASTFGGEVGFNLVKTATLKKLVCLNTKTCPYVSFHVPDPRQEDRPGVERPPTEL
Kind of assay: Cyclooxygenase enzyme assay (TLC method), COX-1. Format: biochemical. The settings on record: ovine COX-1, preincubation 90-120 min, [1-14C] arachidonic acid; read-out: IC50 COX-1, inhibition of cyclooxygenase activity. The method, then: Cyclooxygenase activity of ovine COX-1 (Oxford Biomedical Research Inc.) and human recombinant COX-2 (Oxford Biomedical Research Inc.) was assayed by a thin layer chromatography (TLC) method as follows. All inhibitors were dissolved in dimethyl sulfoxide to a stock solution of 5 mM. Human recombinant COX-2 (3 units) or ovine COX-1 (15 units) was incubated with inhibitors at several concentrations in a solution containing 100 mM Tris-HCl, pH7.8, 500 μM phenol and hematin for 90 to 120 minutes at room temperature (24° C.). In controls, equal volumes of DMSO without drug were added to the incubation mixture. After incubation for 90-120 minutes, [1-^14C] arachidonic acid (50 μM, 51 mCi/mmol) (DuPont NEN) was added and incubated at 37° C. for 2 minutes. The reaction was terminated by extraction with 1 ml of ethyl acetate. The ethyl acetate layer was transferred into a fresh tube and evaporated to dryness in a Speedvac vacuum dryer. The contents of the tubes were reconstituted in […] of ethyl acetate and spotted on a TLC plate (J. T. Baker, Phillipsburg, N.J.) and developed in a mobile phase containing chloroform/methanol (95:5) at 4° C. Radiolabeled prostanoid compounds (the products of COX enzymatic reaction with radiolabeled arachidonic acid substrate) were quantitated with a radioactivity scanner (Fuji, Phosphorimager). […]

The subject of the next assay is DLD-1 cells. Kind of assay: Soft agar assay, colony growth of DLD-1 cells. The following applies: highest concentration tested (range 10 μM to 75 μM), one dose, stained after 20 days, versus untreated control cells. Format: cell-based, human. The method, then:
The Example 1 and 24 compounds were compared to the COX-2 inhibitor celecoxib in inhibiting the growth of DLD-1 cells in soft agar. DLD-1 cells are human colorectal carcinoma cells that overexpress COX-2. DLD-1 cells grow in soft agar and form tumors in nude mice. The soft agar assay was performed as follows. A layer of bottom agar ([…]) was placed onto 60 mm^2 tissue culture dishes. The tumor cells were trypsinized from normal growth flasks while in exponential growth. The cells were counted by using a hemacytometer and 1.0×10^5 cells were placed into the top agar mixture containing growth medium, 4% noble agar and various concentrations of drugs. The concentration range was normally between 10 μM to 75 μM. The cells were not refed during the assay system; therefore, the cells were treated with one dose of the agents. The plates were stained 20 days later with a 0.05% (w/v) nitroblue tetrazolium solution (which stains only viable cells) for 48 hours. The results are shown in FIG. 1, the y-axis being the percent of cell colonies remaining in comparison to untreated control cells.

Turning to `NS(=O)(=O)c1ccc(N2N=C(C(F)(F)F)CC2c2ccccc2)cc1` (stereo not drawn) [Example 1, 1-(4-sulfamylphenyl)-3-trifluoromethyl-5-phenyl-2-pyrazoline], the IC50 (commonly the concentration at which inhibition is half-maximal) was 0.1 µM on human recombinant COX-2 and more than 100 µM on ovine COX-1. Also, in the assay with DLD-1 cells, the “inhibition of DLD-1 cell colony growth in soft agar” value came out at 100%.
For `NS(=O)(=O)c1ccc(N2N=C(C(F)(F)F)CC2c2c[nH]c3ccccc23)cc1` (stereo not drawn) [Example 24, 1-(4-sulfamylphenyl)-3-trifluoromethyl-5-(3-indolyl)-2-pyrazoline], in that order: 0.078 µM, more than 100 µM and 100%.
